{"source": "the supplement of paper PMC10307832", "assay_in_all_cases": "relative viability (nuclei count vs DMSO), 5 days (fraction); higher = more cells survive", "key": {"[1]": {"system": "NCI-H1355", "method_in_brief": "(§1)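 Medians of duplicate plates are given as relative viability. That measure is the nuclei count in treated wells divided by the count in vehicle wells. Counts were taken on 4× images of lung cancer cell lines in 1536-well plates, 5 days after pin-tool dosing the day after seeding with one drug alone or a fixed anchor-drug dose plus five library-drug doses (not always all listed) in √10 steps.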"}, "[2]": {"system": "LK-2", "method_in_brief": "as §1"}, "[3]": {"system": "A549", "method_in_brief": "as §1"}, "[4]": {"system": "EBC-1", "method_in_brief": "as §1"}, "[5]": {"system": "Calu-6", "method_in_brief": "as §1"}, "[6]": {"system": "COR-L 105", "method_in_brief": "as §1"}, "[7]": {"system": "IA-LM", "method_in_brief": "as §1"}, "[8]": {"system": "NCI-H520", "method_in_brief": "as §1"}, "[9]": {"system": "NCI-H1299", "method_in_brief": "as §1"}, "[10]": {"system": "LCLC-103H", "method_in_brief": "as §1"}, "[11]": {"system": "NCI-H1703", "method_in_brief": "as §1"}}, "data": [{"smiles": "O=c1cc(N2CCOCC2)oc2c(-c3cccc4c3sc3ccccc34)cccc12", "note": "+ C[C@@H](Oc1cc(-c2cnn(C3CCNCC3)c2)cnc1N)c1c(Cl)ccc(F)c1Cl [Crizotinib] (partner 1 µM)", "values": [{"measurement": "relative viability", "setting": "[1]; first compound 0.01 µM", "result": 1.17}, {"measurement": "relative viability", "setting": "[1]; first compound 0.03162 µM", "result": 1.12}, {"measurement": "relative viability", "setting": "[1]; first compound 0.3162 µM", "result": 1.11}, {"measurement": "relative viability", "setting": "[1]; first compound 1 µM", "result": 0.941}, {"measurement": "relative viability", "setting": "[2]; first compound 0.01 µM", "result": 0.227}, {"measurement": "relative viability", "setting": "[2]; first compound 0.03162 µM", "result": 0.258}, {"measurement": "relative viability", "setting": "[2]; first compound 0.1 µM", "result": 0.219}, {"measurement": "relative viability", "setting": "[2]; first compound 0.3162 µM", "result": 0.193}, {"measurement": "relative viability", "setting": "[2]; first compound 1 µM", "result": 0.243}, {"measurement": "relative viability", "setting": "[3]; first compound 0.01 µM", "result": 0.771}, {"measurement": "relative viability", "setting": "[3]; first compound 0.03162 µM", "result": 0.769}, {"measurement": "relative viability", "setting": "[3]; first compound 0.1 µM", "result": 0.746}, {"measurement": "relative viability", "setting": "[3]; first compound 0.3162 µM", "result": 0.828}, {"measurement": "relative viability", "setting": "[3]; first compound 1 µM", "result": 0.659}, {"measurement": "relative viability", "setting": "[4]; first compound 0.01 µM", "result": 0.208}, {"measurement": "relative viability", "setting": "[4]; first compound 0.03162 µM", "result": 0.227}, {"measurement": "relative viability", "setting": "[4]; first compound 0.1 µM", "result": 0.207}, {"measurement": "relative viability", "setting": "[4]; first compound 0.3162 µM", "result": 0.221}, {"measurement": "relative viability", "setting": "[4]; first compound 1 µM", "result": 0.204}, {"measurement": "relative viability", "setting": "[5]; first compound 0.01 µM", "result": 0.858}, {"measurement": "relative viability", "setting": "[5]; first compound 0.03162 µM", "result": 0.857}, {"measurement": "relative viability", "setting": "[5]; first compound 0.1 µM", "result": 0.793}, {"measurement": "relative viability", "setting": "[5]; first compound 0.3162 µM", "result": 0.759}, {"measurement": "relative viability", "setting": "[5]; first compound 1 µM", "result": 0.777}, {"measurement": "relative viability", "setting": "[6]; first compound 0.01 µM", "result": 0.655}, {"measurement": "relative viability", "setting": "[6]; first compound 0.03162 µM", "result": 0.649}, {"measurement": "relative viability", "setting": "[6]; first compound 0.1 µM", "result": 0.856}, {"measurement": "relative viability", "setting": "[6]; first compound 0.3162 µM", "result": 0.724}, {"measurement": "relative viability", "setting": "[6]; first compound 1 µM", "result": 0.589}, {"measurement": "relative viability", "setting": "[7]; first compound 0.01 µM", "result": 0.965}, {"measurement": "relative viability", "setting": "[7]; first compound 0.03162 µM", "result": 0.694}, {"measurement": "relative viability", "setting": "[7]; first compound 0.1 µM", "result": 0.683}, {"measurement": "relative viability", "setting": "[7]; first compound 0.3162 µM", "result": 0.732}, {"measurement": "relative viability", "setting": "[7]; first compound 1 µM", "result": 0.621}, {"measurement": "relative viability", "setting": "[8]; first compound 0.01 µM", "result": 0.824}, {"measurement": "relative viability", "setting": "[8]; first compound 0.03162 µM", "result": 0.739}, {"measurement": "relative viability", "setting": "[8]; first compound 0.1 µM", "result": 1.04}, {"measurement": "relative viability", "setting": "[8]; first compound 0.3162 µM", "result": 0.697}, {"measurement": "relative viability", "setting": "[8]; first compound 1 µM", "result": 0.825}, {"measurement": "relative viability", "setting": "[9]; first compound 0.01 µM", "result": 0.949}, {"measurement": "relative viability", "setting": "[9]; first compound 0.03162 µM", "result": 0.954}, {"measurement": "relative viability", "setting": "[9]; first compound 0.1 µM", "result": 0.973}, {"measurement": "relative viability", "setting": "[9]; first compound 0.3162 µM", "result": 0.637}, {"measurement": "relative viability", "setting": "[9]; first compound 1 µM", "result": 0.923}, {"measurement": "relative viability", "setting": "[10]; first compound 0.01 µM", "result": 1.06}, {"measurement": "relative viability", "setting": "[10]; first compound 0.03162 µM", "result": 0.976}, {"measurement": "relative viability", "setting": "[10]; first compound 0.1 µM", "result": 1.12}, {"measurement": "relative viability", "setting": "[10]; first compound 0.3162 µM", "result": 0.958}, {"measurement": "relative viability", "setting": "[10]; first compound 1 µM", "result": 1.07}, {"measurement": "relative viability", "setting": "[11]; first compound 0.01 µM", "result": 0.769}, {"measurement": "relative viability", "setting": "[11]; first compound 0.03162 µM", "result": 0.604}, {"measurement": "relative viability", "setting": "[11]; first compound 0.1 µM", "result": 0.918}, {"measurement": "relative viability", "setting": "[11]; first compound 0.3162 µM", "result": 0.584}, {"measurement": "relative viability", "setting": "[11]; first compound 1 µM", "result": 0.591}]}, {"smiles": "O=c1cc(N2CCOCC2)oc2c(-c3cccc4c3sc3ccccc34)cccc12", "note": "+ C[C@]1(O)C[C@@H](c2nc(-c3ccc4ccc(-c5ccccc5)nc4c3)c3c(N)nccn32)C1 [Linsitinib] (partner 1 µM)", "values": [{"measurement": "relative viability", "setting": "[1]; first compound 0.01 µM", "result": 0.772}, {"measurement": "relative viability", "setting": "[1]; first compound 0.03162 µM", "result": 0.895}, {"measurement": "relative viability", "setting": "[1]; first compound 0.3162 µM", "result": 0.819}, {"measurement": "relative viability", "setting": "[1]; first compound 1 µM", "result": 0.849}, {"measurement": "relative viability", "setting": "[2]; first compound 0.01 µM", "result": 0.585}, {"measurement": "relative viability", "setting": "[2]; first compound 0.03162 µM", "result": 0.754}, {"measurement": "relative viability", "setting": "[2]; first compound 0.1 µM", "result": 0.83}, {"measurement": "relative viability", "setting": "[2]; first compound 0.3162 µM", "result": 0.554}, {"measurement": "relative viability", "setting": "[2]; first compound 1 µM", "result": 0.69}, {"measurement": "relative viability", "setting": "[3]; first compound 0.01 µM", "result": 0.568}, {"measurement": "relative viability", "setting": "[3]; first compound 0.03162 µM", "result": 0.613}, {"measurement": "relative viability", "setting": "[3]; first compound 0.1 µM", "result": 0.577}, {"measurement": "relative viability", "setting": "[3]; first compound 0.3162 µM", "result": 0.663}, {"measurement": "relative viability", "setting": "[3]; first compound 1 µM", "result": 0.592}, {"measurement": "relative viability", "setting": "[4]; first compound 0.01 µM", "result": 0.973}, {"measurement": "relative viability", "setting": "[4]; first compound 0.03162 µM", "result": 0.942}, {"measurement": "relative viability", "setting": "[4]; first compound 0.1 µM", "result": 0.835}, {"measurement": "relative viability", "setting": "[4]; first compound 0.3162 µM", "result": 1.06}, {"measurement": "relative viability", "setting": "[4]; first compound 1 µM", "result": 0.993}, {"measurement": "relative viability", "setting": "[5]; first compound 0.01 µM", "result": 0.963}, {"measurement": "relative viability", "setting": "[5]; first compound 0.03162 µM", "result": 0.935}, {"measurement": "relative viability", "setting": "[5]; first compound 0.1 µM", "result": 1.06}, {"measurement": "relative viability", "setting": "[5]; first compound 0.3162 µM", "result": 0.944}, {"measurement": "relative viability", "setting": "[5]; first compound 1 µM", "result": 0.983}, {"measurement": "relative viability", "setting": "[6]; first compound 0.01 µM", "result": 0.858}, {"measurement": "relative viability", "setting": "[6]; first compound 0.03162 µM", "result": 0.792}, {"measurement": "relative viability", "setting": "[6]; first compound 0.1 µM", "result": 0.851}, {"measurement": "relative viability", "setting": "[6]; first compound 0.3162 µM", "result": 0.773}, {"measurement": "relative viability", "setting": "[6]; first compound 1 µM", "result": 0.895}, {"measurement": "relative viability", "setting": "[7]; first compound 0.01 µM", "result": 0.667}, {"measurement": "relative viability", "setting": "[7]; first compound 0.03162 µM", "result": 0.684}, {"measurement": "relative viability", "setting": "[7]; first compound 0.1 µM", "result": 0.698}, {"measurement": "relative viability", "setting": "[7]; first compound 0.3162 µM", "result": 0.506}, {"measurement": "relative viability", "setting": "[7]; first compound 1 µM", "result": 0.589}, {"measurement": "relative viability", "setting": "[8]; first compound 0.01 µM", "result": 1.02}, {"measurement": "relative viability", "setting": "[8]; first compound 0.03162 µM", "result": 1.01}, {"measurement": "relative viability", "setting": "[8]; first compound 0.1 µM", "result": 1.22}, {"measurement": "relative viability", "setting": "[8]; first compound 0.3162 µM", "result": 0.923}, {"measurement": "relative viability", "setting": "[8]; first compound 1 µM", "result": 0.876}, {"measurement": "relative viability", "setting": "[9]; first compound 0.01 µM", "result": 0.972}, {"measurement": "relative viability", "setting": "[9]; first compound 0.03162 µM", "result": 0.937}, {"measurement": "relative viability", "setting": "[9]; first compound 0.1 µM", "result": 0.945}, {"measurement": "relative viability", "setting": "[9]; first compound 0.3162 µM", "result": 1.01}, {"measurement": "relative viability", "setting": "[9]; first compound 1 µM", "result": 0.995}, {"measurement": "relative viability", "setting": "[10]; first compound 0.01 µM", "result": 1.09}, {"measurement": "relative viability", "setting": "[10]; first compound 0.03162 µM", "result": 1.04}, {"measurement": "relative viability", "setting": "[10]; first compound 0.1 µM", "result": 1.03}, {"measurement": "relative viability", "setting": "[10]; first compound 0.3162 µM", "result": 1.08}, {"measurement": "relative viability", "setting": "[10]; first compound 1 µM", "result": 0.978}, {"measurement": "relative viability", "setting": "[11]; first compound 0.01 µM", "result": 0.786}, {"measurement": "relative viability", "setting": "[11]; first compound 0.03162 µM", "result": 0.991}, {"measurement": "relative viability", "setting": "[11]; first compound 0.1 µM", "result": 0.684}, {"measurement": "relative viability", "setting": "[11]; first compound 0.3162 µM", "result": 0.641}, {"measurement": "relative viability", "setting": "[11]; first compound 1 µM", "result": 0.919}]}]}
